Data reported in patent publication US20240301409A1, “Chemically Modified Small Activating RNA” (RACTIGEN THERAPEUTICS, priority 2021, published 2024).

Test system: J82 cells
Test: Cellular proliferation assay (CCK8) in J82 cells, combined with Mitomycin C or valrubicin
Assay type: cell-based, human
Description: J82 cells were transfected with RAG1-40-31 at concentrations of 0.1, 0.5, 1, 5, 10, 25 and 50 nM for 24 hours, and then Mitomycin C at concentrations of 1, 10, 100, 1000 and 10000 nM was added. The combined treatment was carried out with concentrations in pairs. After treatment, the proliferation of cells was detected using CCK8 kit. FIGS. 14A-14B show the relative proliferation proportion of J82 cells after the combined treatment with chemically modified saRNA RAG1-40-31 and valrubicin. […] Control and DMSO are the blank transfection control and the solvent for dilution control, respectively.
J82 cells were transfected with RAG1-40-31 at concentrations of 0.1, 0.5, 1, 5, 10, 25 and 50 nM for 24 hours, and then valrubicin at concentrations of 1, 10, 100, 1000 and 10000 nM was added. The combined treatment was carried out with concentrations in pairs. After treatment, the cellular proliferation was detected by CCK8 kit. FIGS. 15A-15B show the relative proliferation proportion of T24 cells after the combined treatment with chemically modified saRNA RAG1-40-31 and Mitomycin C. […] Control and DMSO are the blank transfection control and the solvent for dilution control, respectively.
Human bladder cancer cells Ku-7-LG (ATCC), J82 (ATCC) and T24 (ATCC) were cultured in McCoy medium (Gibco) comprising 10% calf serum (Sigma-Aldrich) and 1% penicillin/Streptomycin (Gibco). Cells were cultured at 37° C. under 5% CO2. Ku-7-LG, J82 and T24 cells were plated into 12-well plates at 10×10^4 cells per well, transfected with the small RNA at a concentration of 10 nM (unless otherwise specified) for three days, using RNAiMax (Invitrogen, Carlsbad, CA) according to the manufacturer's instructions. Two replicate wells were set for each treatment.
Cells were plated in a 96-well plate at 2˜4×10^3 cells/well, cultured overnight, and transfected with the oligonucleotide duplexes. Three days after transfection, CCK8 (Dojindo) was used to detect cellular proliferation following manufacturer's instructions. The experimental steps are briefly described as follows: 10 μL of CCK8 solution was added to each well, incubated at 37° C. for 1 hour, and then the absorbance at 450 nm was measured using a microplate reader.
In this example, chemically modified saRNA RAG1-40-31 was used in combination with clinical chemical agents to evaluate the suppressing effect of the combined agents on cancer cells.

## RAG1-40-31: saRNA duplex: sense fCfCAACUCAUUCUCCAAG*U*C (SEQ ID NO 16); antisense U*A*fCfUfUGGAGAAfUGAGfUfUGG*fC*A (SEQ ID NO 12) (sense CCAACUCAUUCUCCAAGUC; antisense UACUUGGAGAAUGAGUUGGCA; 2'-F and phosphorothioate modifications; modified_base (1)..(2) (1,2)=2′-fluoro; modified_base (17)..(19) (17,18,19)=phosphorothioate (PS) backbone modification; modified_base (2)..(21) (2,3,19,20,21)=phosphorothioate (PS) backbone modification; modified_base (3)..(20) (3,4,5,12,16,17,20)=2′-fluoro)
RAG1-40-31 0.1 nM + MMC 10000 nM
  Relative proliferation proportion of J82 cells: 1.5%
RAG1-40-31 0.1 nM + valrubicin 1 nM
  Relative proliferation proportion of J82 cells: 71.0%
RAG1-40-31 0.1 nM + valrubicin 10 nM
  Relative proliferation proportion of J82 cells: 58.2%
RAG1-40-31 0.1 nM + valrubicin 100 nM
  Relative proliferation proportion of J82 cells: 73.2%
RAG1-40-31 0.1 nM + valrubicin 1000 nM
  Relative proliferation proportion of J82 cells: 26.9%
RAG1-40-31 0.1 nM + valrubicin 10000 nM
  Relative proliferation proportion of J82 cells: 9.9%
RAG1-40-31 0.1 nM, Control (no MMC)
  Relative proliferation proportion of J82 cells: 97.9%
RAG1-40-31 0.1 nM, Control (no valrubicin)
  Relative proliferation proportion of J82 cells: 85.1%
RAG1-40-31 0.5 nM + MMC 1 nM
  Relative proliferation proportion of J82 cells: 70.1%
RAG1-40-31 0.5 nM + MMC 10 nM
  Relative proliferation proportion of J82 cells: 69.3%
RAG1-40-31 0.5 nM + MMC 100 nM
  Relative proliferation proportion of J82 cells: 34.9%
RAG1-40-31 0.5 nM + MMC 1000 nM
  Relative proliferation proportion of J82 cells: 10.8%
RAG1-40-31 0.5 nM + MMC 10000 nM
  Relative proliferation proportion of J82 cells: 0.9%
RAG1-40-31 0.5 nM + valrubicin 1 nM
  Relative proliferation proportion of J82 cells: 62.4%
RAG1-40-31 0.5 nM + valrubicin 10 nM
  Relative proliferation proportion of J82 cells: 54.1%
RAG1-40-31 0.5 nM + valrubicin 100 nM
  Relative proliferation proportion of J82 cells: 72.8%
RAG1-40-31 0.5 nM + valrubicin 1000 nM
  Relative proliferation proportion of J82 cells: 24.4%
RAG1-40-31 0.5 nM + valrubicin 10000 nM
  Relative proliferation proportion of J82 cells: 7.7%
RAG1-40-31 0.5 nM, Control (no MMC)
  Relative proliferation proportion of J82 cells: 89.9%
RAG1-40-31 0.5 nM, Control (no valrubicin)
  Relative proliferation proportion of J82 cells: 77.8%
RAG1-40-31 1 nM + MMC 1 nM
  Relative proliferation proportion of J82 cells: 55.8%
RAG1-40-31 1 nM + MMC 10 nM
  Relative proliferation proportion of J82 cells: 57.2%
RAG1-40-31 1 nM + MMC 100 nM
  Relative proliferation proportion of J82 cells: 30.1%
RAG1-40-31 1 nM + MMC 1000 nM
  Relative proliferation proportion of J82 cells: 9.3%
RAG1-40-31 1 nM + MMC 10000 nM
  Relative proliferation proportion of J82 cells: 1.4%
RAG1-40-31 1 nM + valrubicin 1 nM
  Relative proliferation proportion of J82 cells: 59.8%
RAG1-40-31 1 nM + valrubicin 10 nM
  Relative proliferation proportion of J82 cells: 51.6%
RAG1-40-31 1 nM + valrubicin 100 nM
  Relative proliferation proportion of J82 cells: 54.4%
RAG1-40-31 1 nM + valrubicin 1000 nM
  Relative proliferation proportion of J82 cells: 22.7%
RAG1-40-31 1 nM + valrubicin 10000 nM
  Relative proliferation proportion of J82 cells: 7.5%
RAG1-40-31 1 nM, Control (no MMC)
  Relative proliferation proportion of J82 cells: 79.8%
RAG1-40-31 1 nM, Control (no valrubicin)
  Relative proliferation proportion of J82 cells: 73.9%
RAG1-40-31 5 nM + MMC 1 nM
  Relative proliferation proportion of J82 cells: 42.8%
RAG1-40-31 5 nM + MMC 10 nM
  Relative proliferation proportion of J82 cells: 40.8%
RAG1-40-31 5 nM + MMC 100 nM
  Relative proliferation proportion of J82 cells: 26.2%
RAG1-40-31 5 nM + MMC 1000 nM
  Relative proliferation proportion of J82 cells: 7.2%
RAG1-40-31 5 nM + MMC 10000 nM
  Relative proliferation proportion of J82 cells: 1.2%
RAG1-40-31 5 nM + valrubicin 1 nM
  Relative proliferation proportion of J82 cells: 37.9%
RAG1-40-31 5 nM + valrubicin 10 nM
  Relative proliferation proportion of J82 cells: 46.6%
RAG1-40-31 5 nM + valrubicin 100 nM
  Relative proliferation proportion of J82 cells: 50.9%
RAG1-40-31 5 nM + valrubicin 1000 nM
  Relative proliferation proportion of J82 cells: 22.6%
RAG1-40-31 5 nM + valrubicin 10000 nM
  Relative proliferation proportion of J82 cells: 5.5%
RAG1-40-31 5 nM, Control (no MMC)
  Relative proliferation proportion of J82 cells: 59.3%
RAG1-40-31 5 nM, Control (no valrubicin)
  Relative proliferation proportion of J82 cells: 58.4%
RAG1-40-31 10 nM + MMC 1 nM
  Relative proliferation proportion of J82 cells: 37.0%
RAG1-40-31 10 nM + MMC 10 nM
  Relative proliferation proportion of J82 cells: 37.7%
RAG1-40-31 10 nM + MMC 100 nM
  Relative proliferation proportion of J82 cells: 22.2%
RAG1-40-31 10 nM + MMC 1000 nM
  Relative proliferation proportion of J82 cells: 6.9%
RAG1-40-31 10 nM + MMC 10000 nM
  Relative proliferation proportion of J82 cells: 1.0%
RAG1-40-31 10 nM + valrubicin 1 nM
  Relative proliferation proportion of J82 cells: 33.1%
RAG1-40-31 10 nM + valrubicin 10 nM
  Relative proliferation proportion of J82 cells: 37.1%
RAG1-40-31 10 nM + valrubicin 100 nM
  Relative proliferation proportion of J82 cells: 40.4%
RAG1-40-31 10 nM + valrubicin 1000 nM
  Relative proliferation proportion of J82 cells: 20.3%
RAG1-40-31 10 nM + valrubicin 10000 nM
  Relative proliferation proportion of J82 cells: 4.3%
RAG1-40-31 10 nM, Control (no MMC)
  Relative proliferation proportion of J82 cells: 48.9%
RAG1-40-31 10 nM, Control (no valrubicin)
  Relative proliferation proportion of J82 cells: 50.6%
RAG1-40-31 25 nM + MMC 1 nM
  Relative proliferation proportion of J82 cells: 20.8%
RAG1-40-31 25 nM + MMC 10 nM
  Relative proliferation proportion of J82 cells: 25.7%
RAG1-40-31 25 nM + MMC 100 nM
  Relative proliferation proportion of J82 cells: 17.2%
RAG1-40-31 25 nM + MMC 1000 nM
  Relative proliferation proportion of J82 cells: 5.0%
RAG1-40-31 25 nM + MMC 10000 nM
  Relative proliferation proportion of J82 cells: 0.4%
RAG1-40-31 25 nM + valrubicin 1 nM
  Relative proliferation proportion of J82 cells: 26.1%
RAG1-40-31 25 nM + valrubicin 10 nM
  Relative proliferation proportion of J82 cells: 23.9%
RAG1-40-31 25 nM + valrubicin 100 nM
  Relative proliferation proportion of J82 cells: 26.3%
RAG1-40-31 25 nM + valrubicin 1000 nM
  Relative proliferation proportion of J82 cells: 13.3%
RAG1-40-31 25 nM + valrubicin 10000 nM
  Relative proliferation proportion of J82 cells: 2.7%
RAG1-40-31 25 nM, Control (no MMC)
  Relative proliferation proportion of J82 cells: 38.4%
RAG1-40-31 25 nM, Control (no valrubicin)
  Relative proliferation proportion of J82 cells: 45.6%
RAG1-40-31 50 nM + MMC 1 nM
  Relative proliferation proportion of J82 cells: 25.9%
RAG1-40-31 50 nM + MMC 10 nM
  Relative proliferation proportion of J82 cells: 25.8%
RAG1-40-31 50 nM + MMC 100 nM
  Relative proliferation proportion of J82 cells: 13.9%
RAG1-40-31 50 nM + MMC 1000 nM
  Relative proliferation proportion of J82 cells: 3.4%
RAG1-40-31 50 nM + MMC 10000 nM
  Relative proliferation proportion of J82 cells: 0.6%
RAG1-40-31 50 nM + valrubicin 1 nM
  Relative proliferation proportion of J82 cells: 19.7%
RAG1-40-31 50 nM + valrubicin 10 nM
  Relative proliferation proportion of J82 cells: 21.4%
RAG1-40-31 50 nM + valrubicin 100 nM
  Relative proliferation proportion of J82 cells: 23.9%
RAG1-40-31 50 nM + valrubicin 1000 nM
  Relative proliferation proportion of J82 cells: 14.8%
RAG1-40-31 50 nM + valrubicin 10000 nM
  Relative proliferation proportion of J82 cells: 3.2%
RAG1-40-31 50 nM, Control (no MMC)
  Relative proliferation proportion of J82 cells: 34.8%
RAG1-40-31 50 nM, Control (no valrubicin)
  Relative proliferation proportion of J82 cells: 33.5%
